Results: publication doi:10.1101/2021.10.07.463234v2 (biorxiv, 2021)
Structures can show the parent of a compound that is named as a salt.

Biological target: SARS-CoV-2 Mac1 (Severe acute respiratory syndrome coronavirus 2, UniProt P0DTD1)
Assay: biochemical
Settings: 100 µM; inhibitor

Compound | %inhibition
CN1CCc2nc(C(=O)N[C@@H]3C[C@@H](C(=O)N(C)C)CC[C@@H]3NC(=O)C(=O)Nc3ccc(Cl)cn3)sc2C1 [Edoxaban tosylate Monohydrate] | 20.23%
CN1CCc2nc(C(=O)N[C@@H]3C[C@@H](C(=O)N(C)C)CC[C@@H]3NC(=O)C(=O)Nc3ccc(Cl)cn3)sc2C1 [Edoxaban] | 4.891%
CC1=NN(c2ccc(C)c(C)c2)C(=O)/C1=N\Nc1cccc(-c2cccc(C(=O)O)c2)c1O [Eltrombopag Olamine] | 18.42%
CC1=NN(c2ccc(C)c(C)c2)C(=O)/C1=N\Nc1cccc(-c2cccc(C(=O)O)c2)c1O [Eltrombopag] | 0%
CCOCCn1c(N2CCCN(C)CC2)nc2ccccc21 [Emedastine Difumarate] | 0.198%
CCOCCn1c(N2CCCN(C)CC2)nc2ccccc21 [Emedastine] | 0%
CCn1cc(C(=O)O)c(=O)c2cc(F)c(N3CCNCC3)nc21 [Enoxacin Sesquihydrate] | 0%
CCn1cc(C(=O)O)c(=O)c2cc(F)c(N3CCNCC3)nc21 [Enoxacin] | 29.69%
C=C1[C@H](CO)[C@@H](O)C[C@@H]1n1cnc2c(=O)[nH]c(N)nc21 [Entecavir Hydrate] | 11.65%
C=C1[C@H](CO)[C@@H](O)C[C@@H]1n1cnc2c(=O)[nH]c(N)nc21 [Entecavir] | 0%
CNC[C@H](O)c1ccc(O)c(O)c1 [Epinephrine HCl] | 5.697%
C#Cc1cccc(Nc2ncnc3cc(OCCOC)c(OCCOC)cc23)c1 [Erlotinib HCl (OSI-744)] | 12.32%
C#Cc1cccc(Nc2ncnc3cc(OCCOC)c(OCCOC)cc23)c1 [Erlotinib] | 10.85%

Same assay, conditions: read-out: %inhibition

Compound | inhibition at 100 µM
O=C1Nc2ccc(Cl)cc2[C@@](C#CC2CC2)(C(F)(F)F)O1 [Efavirenz] | 0%
C=C1CCN([C@H](C)[C@](O)(Cn2cncn2)c2ccc(F)cc2F)CC1 [Efinaconazole] | 2.14%
NCCCC(N)(C(=O)O)C(F)F (stereo not drawn) [Eflornithine hydrochloride hydrate] | 0%
CC1=C(C(=O)OCCN(Cc2ccccc2)c2ccccc2)C(c2cccc([N+](=O)[O-])c2)C(P2(=O)OCC(C)(C)CO2)=C(C)N1 (stereo not drawn) [Efonidipine] | 14.5%
COc1cccc(-c2c(C)n(Cc3c(F)cccc3C(F)(F)F)c(=O)n(C[C@H](NCCCC(=O)O)c3ccccc3)c2=O)c1F [Elagolix Sodium] | 0%
COC(=O)N[C@H](C(=O)N1CCC[C@H]1c1nc(-c2ccc3c(c2)O[C@@H](c2ccccc2)n2c-3cc3cc(-c4c[nH]c([C@@H]5CCCN5C(=O)[C@@H](NC(=O)OC)C(C)C)n4)ccc32)c[nH]1)C(C)C [Elbasvir] | 8.16%
CN1CCC[C@@H]1Cc1c[nH]c2ccc(CCS(=O)(=O)c3ccccc3)cc12 [Eletriptan HBr] | 0%
CCCCCCCC(=O)N[C@H](CN1CCCC1)[C@H](O)c1ccc2c(c1)OCCO2 [Eliglustat] | 2.49%
O=c1oc2c(O)c(O)cc3c(=O)oc4c(O)c(O)cc1c4c23 [Ellagic acid] | 33.1%
COc1ccc(CN(C(=O)[C@@H](N)Cc2c(C)cc(C(N)=O)cc2C)[C@@H](C)c2ncc(-c3ccccc3)[nH]2)cc1C(=O)O [Eluxadoline] | 5.52%
COc1cc2c(cc1Cc1cccc(Cl)c1F)c(=O)c(C(=O)O)cn2[C@H](CO)C(C)C [Elvitegravir (GS-9137, JTK-303)] | 0%
OC[C@H]1O[C@@H](c2ccc(Cl)c(Cc3ccc(O[C@H]4CCOC4)cc3)c2)[C@H](O)[C@@H](O)[C@@H]1O [Empagliflozin (BI 10773)] | 0%
C[C@H](NC(=O)C(=O)Nc1ccccc1C(C)(C)C)C(=O)N[C@@H](CC(=O)O)C(=O)COc1c(F)c(F)cc(F)c1F [Emricasan] | 21%
Nc1nc(=O)n([C@@H]2CS[C@H](CO)O2)cc1F [Emtricitabine] | 0%
CCOC(=O)[C@H](CCc1ccccc1)N[C@@H](C)C(=O)N1CCC[C@H]1C(=O)O [Enalapril Maleate] | 16.8%
C[C@H](N[C@@H](CCc1ccccc1)C(=O)O)C(=O)N1CCC[C@H]1C(=O)O [Enalaprilat Dihydrate] | 10.6%
CC(C)(O)CNc1nc(Nc2ccnc(C(F)(F)F)c2)nc(-c2cccc(C(F)(F)F)n2)n1 [Enasidenib (AG-221)] | 6.78%
COC(=O)N[C@@H](C)CNc1nccc(-c2cn(C(C)C)nc2-c2cc(Cl)cc(NS(C)(=O)=O)c2F)n1 [Encorafenib (LGX818)] | 10.8%
CC1(C)[C@@H](O)CC[C@]2(C)[C@H]3C(=O)C=C4[C@@H]5C[C@@](C)(C(=O)O)CC[C@]5(C)CC[C@@]4(C)[C@]3(C)CC[C@@H]12 [Enoxolone] | 0%

Compound | inhibition at 100 µM
CCN1CCN(c2cc3c(cc2F)c(=O)c(C(=O)O)cn3C2CC2)CC1 [Enrofloxacin] | 16.9%
CCN(CC)C(=O)/C(C#N)=C/c1cc(O)c(O)c([N+](=O)[O-])c1 [Entacapone] | 0%
Nc1ccccc1NC(=O)c1ccc(CNC(=O)OCc2cccnc2)cc1 [Entinostat (MS-275)] | 33.3%
c1cn2cc(-c3ccc4cn[nH]c4c3)nc(Nc3ccc(N4CCOCC4)cc3)c2n1 [Entospletinib (GS-9973)] | 29.5%
CN1CCN(c2ccc(C(=O)Nc3n[nH]c4ccc(Cc5cc(F)cc(F)c5)cc34)c(NC3CCOCC3)c2)CC1 [Entrectinib (RXDX-101)] | 8.59%
Cn1cc(C2=C(c3cn(C4CCN(Cc5ccccn5)CC4)c4ccccc34)C(=O)NC2=O)c2ccccc21 [Enzastaurin (LY317615)] | 34.6%
NS(=O)(=O)NCCNc1nonc1/C(=N/O)Nc1ccc(F)c(Br)c1 [Epacadostat (INCB024360)] | 14.8%
CC(/C=C1\SC(=S)N(CC(=O)O)C1=O)=C\c1ccccc1 [Epalrestat] | 0%
CCc1ccc(C(=O)C(C)CN2CCCCC2)cc1 (stereo not drawn) [Eperisone hydrochloride] | 10.4%
NC1=NCC2c3ccccc3Cc3ccccc3N12 (stereo not drawn) [Epinastine HCl] | 4.62%
CNC[C@H](O)c1ccc(O)c(O)c1 [Epinephrine bitartrate] | 10.7%
COc1cccc2c1C(=O)c1c(O)c3c(c(O)c1C2=O)C[C@@](O)(C(=O)CO)C[C@@H]3O[C@H]1C[C@H](N)[C@@H](O)[C@H](C)O1 [Epirubicin HCl] | 51.4%
COC(=O)[C@@H]1CC2=CC(=O)CC[C@]2(C)[C@@]23O[C@@H]2C[C@@]2(C)[C@@H](CC[C@@]24CCC(=O)O4)[C@H]13 [Eplerenone] | 3.58%
CCOC(CN1CCN(CC(C)C(=O)c2ccccc2)CC1)c1ccccc1 (stereo not drawn) [Eprazinone 2HCl] | 0%
O=S(=O)(O)CCCS(=O)(=O)O [Eprodisate disodium] | 0%
CCCCc1ncc(/C=C(\Cc2cccs2)C(=O)O)n1Cc1ccc(C(=O)O)cc1 [Eprosartan Mesylate] | 26.7%
O=C(O)CSCC(=O)NC1CCSC1=O (stereo not drawn) [Erdosteine] | 12.3%
C[C@@H](O)[C@H]1C(=O)N2C(C(=O)O)=C(S[C@@H]3CN[C@H](C(=O)Nc4cccc(C(=O)O)c4)C3)[C@H](C)[C@H]12 [Ertapenem sodium] | 2.44%
CCOc1ccc(Cc2cc([C@]34OC[C@](CO)(O3)[C@@H](O)[C@H](O)[C@H]4O)ccc2Cl)cc1 [Ertugliflozin] | 26.2%
